This note sets out measurements from BindingDB's records for doi:10.1021/jm950717a (Bristol-Myers Squibb, 1996).

pIC50: −log10 of the molar value.

The target in the assay is T1, Dimer of Gag-Pol polyprotein [489-587] (Human immunodeficiency virus 1, UniProt P12497).
T1 construct: 489-587
The assay is described as follows: Protease Inhibition Assay. The settings on record: pH 5.5; 37 °C. The procedure:
IC50 values are determined by inhibition of the cleavage of the peptidic substrate [V-S-Q-N-(beta-naphthylalanine)-P-I-V]. The IC50 value represents the concentration of inhibitor required to inhibit cleavage of substrate by 50%. The assay is performed by addition of purified enzyme to a mixture of inhibitor and the above substrate at pH 5.5. The reaction medium is incubated for 30 min at 37 °C followed by quenching with H3-PO4 and then analyzed by reverse phase HPLC UV (220 nm) detection.

On to `CC(C)(C)OC(=O)N[C@@H](Cc1ccccc1)[C@H](O)CNC[C@@H](O)[C@H](Cc1ccc(OCCN2CCOCC2)cc1)NC(=O)OC(C)(C)C` [tert-butyl N-[(2S,3R)-4-{[(2R,3S)-3-{[(tert-butoxy)carbonyl]amino}-2-hydroxy-4-{4-[2-(morpholin-4-yl)ethoxy]phenyl}butyl]amino}-3-hydroxy-1-phenylbutan-2-yl]carbamate], for which the negative-log IC50 (pIC50) is 7.00. The result for `CC(C)(C)OC(=O)N[C@@H](Cc1ccccc1)[C@H](O)CNC[C@@H](O)[C@H](Cc1ccc(OCC(=O)N2CCOCC2)cc1)NC(=O)OC(C)(C)C` [tert-butyl N-[(2S,3R)-4-{[(2R,3S)-3-{[(tert-butoxy)carbonyl]amino}-2-hydroxy-4-{4-[2-(morpholin-4-yl)-2-oxoethoxy]phenyl}butyl]amino}-3-hydroxy-1-phenylbutan-2-yl]carbamate] reads 7.00; that for `CC(C)(C)OC(=O)N[C@@H](Cc1ccccc1)[C@H](O)CNC[C@@H](O)[C@H](Cc1ccc(OCC(O)c2cccnc2)cc1)NC(=O)OC(C)(C)C` (stereo partly drawn) [[1S-[1R*,2S*(2S*,3R*)]]-[3-[[3-[[(1,1-Dimethylethoxy)-carbonyl]amino]-2-hydroxy-4-[4-[2-hydroxy-2-(3-pyridinyl)ethoxy]phenyl]butyl]amino]-2-hydroxy-1-], 6.96.
